Experimental data: US20240165108A1, “NOVEL USE” (GlaxoSmithKline Intellectual Property Development Limited, priority 2022, published 2024)

Experiments:
[1] = test system: JAK-STAT signaling pathway; test: STAT3/STAT5 phosphorylation in dermal papilla cells treated with oncostatin M; format: cell-based, human
Description: (§1) The downstream effects of recombinant oncostatin M was assessed by evaluating signalling pathways (such as the JAK-STAT pathway previously associated with oncostatin M induced senescence in mouse [Wang 2019, PMID 30930146]) and markers associated with senescence to link specific mediators in the macrophage secretome (like oncostatin M) to disease relevant mechanisms. Dermal papilla cells in culture were treated with recombinant oncostatin M protein from BioLegend. Tofacitinib was received from MedChemExpress as a ready-made 10 mM solution and used at the indicated concentration.
Protein quantification: protein was extracted after lysis with RIPA buffer and quantified by BCA using methods known in the art. Protein was loaded onto a gel and run with NuPage MES SDS running buffer and transferred onto nitrocellulose membrane using the iBlot2 according to manufacturer's instructions and procedures known in the art. The following primary antibodies were used to assess expression of the relative proteins described: Human anti-Total STAT5 antibody, Isotype (Rabbit polyclonal IgG) from Abcam, Human anti-Phospho STAT5 antibody, Isotype (Rabbit polyclonal IgG) from Abcam, Anti-Human total STAT3 (D3Z2G) from Cell Signaling Technologies, Anti-Human pSTAT3 (Y705) (D3A7) from Cell Signaling Technologies and the control antibody, β-Actin (8H10D10) Mouse IgG2b mAb from Cell Signaling Technologies. […]

dermal papilla cells [2] = test: FGF18 and BMP6 gene expression in dermal papilla cells (RT-qPCR); format: cell-based, human; settings: oncostatin M 10 ng/ml and 100 ng/ml
Description: as §1
Gene expression: mRNA was extracted as previously described in example 1. […] The following Taqman probes were used to identify target specific mRNA transcripts: FGF18 (Assay ID: Hs00826077_m1), and BMP6 (Assay ID: Hs01099594_m1).

dermal papilla cells [3] = test: Beta galactosidase activity (senescence) in dermal papilla; format: cell-based, human
Description: as §1
Beta Galactosidase Activity: A B-Galactosidase Activity Assay Kit (Fluorescence, Plate-Based) from Cell Signalling Technology #23833 was used to assess cellular senescence. The instructions were followed according to the manufacturer's instructions.

GPR91 [4] = target: T1, GPR91 (Homo sapiens, UniProt Q9BXA5); test: Calcium flux in HEK293; format: cell-based; settings: read-out: Test compound pIC50, Calcium flux in HEK293 (converted)
T1 sequence (Q9BXA5 1-334): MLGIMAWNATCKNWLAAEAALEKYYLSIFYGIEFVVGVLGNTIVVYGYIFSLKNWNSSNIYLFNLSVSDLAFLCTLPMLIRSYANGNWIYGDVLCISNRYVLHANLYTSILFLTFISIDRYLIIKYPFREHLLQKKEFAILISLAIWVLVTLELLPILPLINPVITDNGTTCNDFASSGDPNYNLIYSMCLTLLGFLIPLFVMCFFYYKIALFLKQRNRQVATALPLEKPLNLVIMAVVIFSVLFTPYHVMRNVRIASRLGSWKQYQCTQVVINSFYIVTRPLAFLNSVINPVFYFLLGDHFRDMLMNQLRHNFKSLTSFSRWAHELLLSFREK
From the text: (§2) GPR91 inhibition can be measured according to the art. For example, GPR91 inhibition may be measured by testing a compound in a G-protein functional assay such as Calcium flux, IP1 accumulation and GTPyS. GPR91 inhibition may be measured by testing a compound in phenotypic assays which measures a cytokine response that is relevant to the indication.

human hair follicles [5] = test: Microscopic hair cycle staging in ex vivo hair follicle organ culture; format: cell-based; settings: for percentage of hair follicles in the anagen phase: donors with healthy hair follicles
From the text: Compounds, at the concentrations indicated, are present throughout the duration of the hair follicle culture at 0.1% DMSO.

GPR91 [6] = target: T1, GPR91; test: GTPyS G-protein functional assay; format: biochemical; design: host or cells: LUVA; settings: read-out: Test compound pIC50, GTPyS (converted)
From the text: as §2

GPR91 [7] = target: T1, GPR91; test: IP1 accumulation; format: cell-based; design: host or cells: LUVA; settings: read-out: Test compound pIC50, IP1 (converted)
From the text: as §2

GPR91 [8] = target: T1, GPR91; test: Succinate-stimulated secretion of PGD2 and cytokines/chemokines in LUVA cells; format: cell-based; design: host or cells: LUVA
Description: After the incubation, the cell suspension was centrifuged, and the supernatant was collected for downstream readouts of secreted factors including Prostaglandin D2 (PGD2) by ELISA (Cayman Chemical PGD2 EIA kit), and cytokines/chemokines TNFa, MIP1a and Eotaxin-3 by MSD (Mesoscale V-Plex Plus proinflammatory panel 1, Plus Chemokine Panel 1).
A GPR91 knockout in LUVA cells (received from Kerafast Inc) was generated using CRISPR technology with a single guide following protocols known in the art. The guide RNA sequence used was […] (SEQ ID NO: 4). The guide RNA cut location was chromosome 3: 151,880,674.

human hair follicles [9] = test: Dermal papilla area and melanin clumping, Fontana-Masson stained ex vivo hair follicles; format: cell-based; settings: for dermal papilla area: healthy hair follicles
Description: Microscopic hair cycle staging: Hair cycle staging is performed at the end of the culture and can be determined according to several established parameters as described previously. Hair follicles are microscopically evaluated for the hair cycle staging using Masson-Fontana histochemistry and Ki-67/TUNEL immunostaining as previously described. […] Melanin clumps are indicated on the images by the orange arrows, and are counted in the Masson-fontana stained section at the end of the culture in a defined region of interest starting at the Auber's line and including the precortical hair matrix as described previously.

human hair follicles [10] = test: Versican immunofluorescence in dermal papilla of hair follicles; format: cell-based; settings: healthy hair follicles
From the text: Versican immunofluorescence (as previously described in Soma et al J Dermatol Sci 2005, doi: 10.1016/j.jdermsci.2005.03.010) was used to determine hair follicle inductive properties.

human hair follicles [11] = test: RNA sequencing of ex vivo cultured hair follicles; format: cell-based
Description: RNA extraction, sequencing and analysis were performed as follows; RNA from n=2-3 hair follicles per group was extracted using […]® PicoPure® RNA Isolation Kit (ThermoFisher) including a Dnase digestions step using the Rnase-Free Dnase Set from Qiagen and stored at −80 degrees Celsius until analysed. RNA concentration, purity and integrity were assessed before sequencing. Sequencing was performed on a NovaSeq 6000 using 2×100 bp read length with an output of approximately 30 M clusters (6 Gb per sample). Demultiplexing of the sequencing reads was performed with Illumina bcl2fastq (2.20).
Briefly, DESeq2 first creates a pseudo-reference sample (row-wise geometric mean) and calculates the ratio of each sample to this reference. Then, the normalization factor for each sample (size factor) is calculated using the median value of all ratios for a given sample. Normalized count values are created by dividing each raw count value in a given sample by that sample's normalization factor. Finally, DESeq2 calculates p values and adjusted p values for genes of two groups by allowing the shrinkage of the log 2 fold changes when the information for a gene is low (low counts or high dispersion values). For manual calculation of fold change (FC) between two groups, the ratio of the normalized read counts was used. And FC is considered relevant or significant if it is greater of equal to 2 (upregulation) or smaller that or equal to 0.5 (downregulation).

GPR91 [12] = target: T1, GPR91; settings: TREM2 expressing M2 macrophages, succinate for 48 hr
Description: Oncostatin M levels were determined by ELISA (Abcam ab215543) according to the manufacturer's instructions.
Oncostatin M levels were determined by ELISA according to the manufacturer's instructions. […] Supernatants were collected and Oncostatin M levels were measured.

dermal papilla cells [13] = test system: dermal papilla cells
Description: iPSC were differentiated and polarized to an M2 like macrophage phenotype as previously described. […] Media was collected from the treated iPSC after 48 hours of incubation, which is referred to as conditioned media. The dermal papilla from both male and female donors were plated at 5K cells/well onto a collagen coated E-Plate and analysed using the XCELLIGENCE® platform according to the manufacturer's instructions. The cells are analysed in the machine for 24 hours to determine adherence to the plate and establishment of baseline measurements. After 24 hours, the media is aspirated, and macrophage conditioned media is added to the cells for up to 117 hours and the effects of the GPR91 dependent iPSC secretome on dermal papilla proliferation are analyzed.

[14] = test system: hair matrix keratinocytes; settings: hair follicles from healthy donors
Description: Hair follicle organ cultures ex vivo: Full length hair follicles were micro dissected from scalp skin or FUEs as above.
Quantitative evaluation of hair matrix keratinocyte proliferation and apoptosis is performed in Ki-67/TUNEL stained sections of the hair follicle. The germinative hair matrix keratinocyte proliferation is calculated as the percentage of KI-67 positive nuclei. Intra-follicular apoptosis is analyzed using TUNEL staining (TdT-mediated dUTP-biotin nick end labelling) as described previously.

[15] = test system: human iPSC derived M2 macrophages; settings: succinate present during macrophage polarization
Description: IPSC precursor cells were differentiated into macrophages using differentiation media known in the art followed by polarisation into M1 and M2 macrophage phenotypes using LPS+IFNg and IL4+IL13 stimulation, respectively.
The TREM2 primer probe set used to determine expression levels was purchased from ThermoFisher (Hs01003898_m1). Relative expression (AU: Arbitrary units) was calculated using 2^−dCT, where dCT is calculated as CT (TREM2)−CT(Housekeeper Gene). In these experiments, the housekeeper gene used was RPLP0 (ribosomal phosphoprotein PO) (Primer Probe purchased from ThermoFisher Assay ID: He00420895_gH).

[16] = LUVA cells, compound 1 hr prior to succinate stimulation, read-out: Test compound pIC50, MIP-1a (converted)
[17] = affected scalp regions, 5 nM, 24 hours
[18] = healthy hair follicles after succinate
[19] = LUVA cells, succinate 3 hours, MSD

## C[C@@H]1CCN(C(=O)CC#N)C[C@@H]1N(C)c1ncnc2[nH]ccc12 [Tofacitinib, reference compound]
[1]; JAK inhibitor co-treatment
  oncostatin M induced phosphorylation of STAT3 and STAT5: can be blocked

## oncostatin M: recombinant oncostatin M protein from BioLegend; cytokine shown to induce hair follicle quiescence in mice
[1]; recombinant oncostatin M applied to dermal papilla
  JAK-STAT signaling, phosphorylation of STAT3 and STAT5: activates the JAK-STAT signaling pathway
Dermal papilla cells [2]
  expression of BMP6: downregulates expression of BMP6
  expression of FGF18: increases the expression of FGF18
Dermal papilla cells [3]
  senescence, β-galactosidase activity: induces senescence

## O=C(CCCc1ccc2cccnc2n1)NCc1cc(-c2ccc(F)c(C(F)(F)F)c2)no1 [Compound 2, N-[{3-(3-trifluoromethyl-4-fluorophenyl)isoxazol-5-yl}methyl]-4-([1,8]naphthyridin-2-yl)butyramide]
GPR91 [4]
  IC50: 25.1 nM
Human hair follicles [5]
  percentage of hair follicles in the anagen phase: increases the percentage of hair follicles in the anagen phase
GPR91 [6]
  IC50: 1260 nM
GPR91 [7]
  IC50: 7940 nM
GPR91 [8]; [16]
  IC50: 1000 nM
GPR91 [8]; LUVA cells, compound 1 hr prior to succinate stimulation, read-out: Test compound pIC50, PGD2 (converted)
  IC50: 63.1 nM

## CN1CCN(Cc2ccc(-c3cccc(C(=O)Nc4ccccc4CC(=O)O)c3)cc2)CC1 [Compound 1, 2-(2-(4′-((4-methylpiperazin-1-yl)methyl)-[1,1′-biphenyl]-3-carboxamido)phenyl)acetic acid]
GPR91 [4]
  IC50: 39.8 nM
Human hair follicles [5]
  percentage of hair follicles in the anagen phase: increases the percentage of hair follicles in the anagen phase
Human hair follicles [9]; 5 uM and 50 uM
  size of the dermal papilla area, representative images: increased size of the dermal papilla area
Human hair follicles [9]; AGA hair follicles, affected/balding region of the scalp
  dermal papilla area, AGA: increases the dermal papilla area
Human hair follicles [9]
  dermal papilla area: increases the dermal papilla area
Human hair follicles [10]
  versican expression in the dermal papilla: Increased versican expression
Human hair follicles [11]; [17]
  genes of apoptotic processes, cell chemotaxis and immune function: significant downregulation in genes that play a role in apoptotic processes, cell chemotaxis and immune function
  genes related to metabolic processes and biosynthesis of macromolecules: increase in genes related to increased metabolic processes and biosynthesis of macromolecules
  hair keratins gene expression: significant upregulation in hair keratins
GPR91 [6]
  IC50: 31.6 nM
GPR91 [7]
  IC50: 100 nM
GPR91 [8]; LUVA cells, compound 1 hr prior to succinate stimulation
  Test compound pIC50, PGD2: 7.6
GPR91 [8]; [16]
  IC50: 79.4 nM

## O=C([O-])CCC(=O)[O-].[Na+].[Na+] [Succinate, Sodium succinate]
GPR91 [12]
  oncostatin M secretion: secrete higher levels of oncostatin M
Dermal papilla cells [13]; 3 mM succinate, male and female donors
  dermal papilla proliferation with conditioned media of succinate treated macrophages: inhibit dermal papilla proliferation
Dermal papilla cells [13]; direct treatment of dermal papilla cells
  dermal papilla proliferation, succinate by itself: does not induce any changes in the proliferation of dermal papilla cells
Human hair follicles [5]; GPR91 activation by succinate
  percentage of hair follicles in the catagen phase: increases the percentage of hair follicles in the catagen phase
Human hair follicles [5]; at high concentrations
  toxicity to hair follicles: highly toxic to hair follicles
Human hair follicles [9]
  dermal papilla area: decreased size of the dermal papilla area
[14]
  hair matrix keratinocyte proliferation: reduces hair matrix keratinocyte proliferation
[14]; TUNEL
  apoptosis: increases apoptosis
Human hair follicles [11]; [18]
  genes related to immune activation (cytokine and chemokine response): increase in genes related to immune activation
  genes that regulate hair follicle pathways and keratins: significant downregulation in genes that regulate hair follicle pathways
[15]
  TREM2 expression: higher levels of expression of TREM2
GPR91 [8]; GPR91 knockout LUVA cell line, 3 hr and 72 hour
  TNFa and MIP-1a response to succinate in GPR91 knockout: lack of response
GPR91 [8]; LUVA cells, 3 hr and 72 hour post succinate addition
  TNFa and MIP-1a response to succinate: robust TNFa and MIP-1a response
GPR91 [8]; [19]
  Succinate control pEC50, MIP-1a: 3.4
  Succinate control pEC50, TNF-α: 4.2
GPR91 [8]; LUVA cells, succinate 3 hours, PGD2 ELISA
  Succinate control pEC50, PGD2: 3.5
